Measured values published in PubChem BioAssay (NCI).
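Compound exposure: 48 hours, 5 concentrations, 96-well plates. At the TGI there is no net growth.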

Tests used:
Assay in all cases: growth of human tumour cells (NCI), 48 h
M14 melanoma = test system: M14 melanoma
UO-31 renal = test system: UO-31 renal
HOP-62 NSCLC = test system: HOP-62 NSCLC
K-562 leukemia = test system: K-562 leukemia
SW-620 colon = test system: SW-620 colon
RPMI-8226 leukemia = test system: RPMI-8226 leukemia
LOX IMVI melanoma = test system: LOX IMVI melanoma
SF-268 CNS = test system: SF-268 CNS
SK-OV-3 ovarian = test system: SK-OV-3 ovarian
TK-10 renal = test system: TK-10 renal
786-0 renal = test system: 786-0 renal
SNB-19 CNS = test system: SNB-19 CNS
SF-539 CNS = test system: SF-539 CNS
SR leukemia = test system: SR leukemia
HCT-116 colon = test system: HCT-116 colon
COLO 205 colon = test system: COLO 205 colon
MALME-3M melanoma = test system: MALME-3M melanoma
MDA-MB-435 = test system: MDA-MB-435
NCI/ADR-RES ovarian = test system: NCI/ADR-RES ovarian
MDA-N = test system: MDA-N
EKVX NSCLC = test system: EKVX NSCLC
OVCAR-4 ovarian = test system: OVCAR-4 ovarian
UACC-257 melanoma = test system: UACC-257 melanoma
U251 CNS = test system: U251 CNS
HOP-92 NSCLC = test system: HOP-92 NSCLC
NCI-H23 lung = test system: NCI-H23 lung
PC-3 prostate = test system: PC-3 prostate
A549 NSCLC = test system: A549 NSCLC
OVCAR-3 ovarian = test system: OVCAR-3 ovarian
SK-MEL-5 melanoma = test system: SK-MEL-5 melanoma
ACHN renal = test system: ACHN renal
HT29 colon = test system: HT29 colon
HCT-15 colon = test system: HCT-15 colon
NCI-H226 lung = test system: NCI-H226 lung
RXF 393 renal = test system: RXF 393 renal
KM12 colon = test system: KM12 colon
OVCAR-8 ovarian = test system: OVCAR-8 ovarian
OVCAR-5 ovarian = test system: OVCAR-5 ovarian
IGROV1 ovarian = test system: IGROV1 ovarian
NCI-H460 lung = test system: NCI-H460 lung
CAKI-1 renal = test system: CAKI-1 renal
SK-MEL-28 melanoma = test system: SK-MEL-28 melanoma
MDA-MB-231 breast = test system: MDA-MB-231 breast
MCF7 breast = test system: MCF7 breast
SK-MEL-2 melanoma = test system: SK-MEL-2 melanoma
HS 578T breast = test system: HS 578T breast
BT-549 breast = test system: BT-549 breast
T-47D breast = test system: T-47D breast
MOLT-4 leukemia = test system: MOLT-4 leukemia
SN12C renal = test system: SN12C renal
A498 renal = test system: A498 renal
NCI-H522 lung = test system: NCI-H522 lung
UACC-62 melanoma = test system: UACC-62 melanoma
SNB-75 CNS = test system: SNB-75 CNS
SF-295 CNS = test system: SF-295 CNS

Measured: TGI

NS(=O)(=O)c1nc(S(=O)(=O)O)c2[nH]cnc2n1
> 100 µM: all assays above
